# Results taken from US9132130B2, “Purine derivative and antitumor agent using same” (ZENYAKU KOGYO KABUSHIKI KAISHA, priority 2009, dated 2015).
# How the values were obtained:
# Type in all cases: cell-based
# [1] = test system: WiDr cells (human colon cancer cells); experiment: in vitro antitumor activity test, WiDr cells, XTT colorimetry; conditions: cultured 72 hours
# Method: (§1) WiDr cells (human colon cancer cells) subcultured in a culture medium composed of a MEM medium added with 10% fetal bovine serum, 25 mM HEPES and 0.1 mg/ml kanamycin under the conditions of 37° C. and 5% carbon dioxide gas were made into single floating cells by treating with trypsin/EDTA, and a single cell suspension of 3×10^4 cells per 1 ml was prepared using the MEM medium (added with 10% fetal bovine serum, 25 mM HEPES and 0.1 mg/ml kanamycin). After dissolving the test compounds in DMSO, they were diluted in a RPMI 1640 medium (added with 10% fetal bovine serum, 25 mM HEPES and 0.1 mg/ml kanamycin) and prepared so that the concentrations were 2.0×10^−9 to 2.0×10^−4 M.
# (§2) 0.1 ml of the cell suspension was placed into each well of 96-well microplates, cultured for 24 hours to allow the cells to adhere to the microplates, then 0.1 ml of the sample solutions were added, and cultured for 72 hours at 37° C. in 5% carbon dioxide gas.
# (§3) Afterwards, the level of growth inhibition at various sample concentrations was obtained using XTT colorimetry, and concentrations at which growth was inhibited by 50% (GI50 values [μM]) were calculated.
# [2] = test system: B16F10 cells (mouse melanoma [malignant melanoma] cells); experiment: in vitro antitumor activity test, B16F10 cells, XTT colorimetry; conditions: B16-F10, cultured 72 hours
# Method: as §1, §2, §3
# (§4) In addition, cells other than WiDr cells that were used, and the condition for preparing each single cell suspension were as follows.
# B16F10 cells (mouse melanoma [malignant melanoma] cells): 1×10^4 cells/ml
# [3] = test system: PC-3 cells (human prostate cancer cells); experiment: in vitro antitumor activity test, PC-3 cells, XTT colorimetry; conditions: PC-3 human prostate cancer cells, cultured 72 hours
# Method: as §1, §2, §3, §4
# PC-3 cells (human prostate cancer cells): 2×10^4 cells/ml
# [4] = test system: P388 cells (mouse leukemia cells); experiment: in vitro antitumor activity test, P388 cells, XTT colorimetry; conditions: cultured 72 hours
# Method: P388 cells (mouse leukemia cells) passaged in the abdominal cavity of DBA/2 mice were extracted with ascitic fluid, and cultured in a RPMI 1640 medium (added with 10% fetal bovine serum, 25 mM HEPES, 0.1 mg/ml kanamycin and 5 μM 2-hydroxyethyldisulfide) at 37° C. in 5% carbon dioxide gas. After culturing for 16 hours, floating P388 cells were made into a single cell suspension of 4×10^4 cells per 1 ml using the same RPMI 1640 medium as given above. The test substances were dissolved in DMSO, then diluted in a RPMI 1640 medium (added with 10% fetal bovine serum, 25 mM HEPES and 0.1 mg/ml kanamycin) and prepared so that the concentrations were 2.0×10^−9 to 2.0×10^−4 M.
# 0.1 ml of the cell suspension was placed into each well of 96-well microplates, then 0.1 ml of the sample solutions were added, and cultured for 72 hours at 37° C. in 5% carbon dioxide gas.
# as §3
# [5] = test system: A549 cells (human lung cancer cells); experiment: in vitro antitumor activity test, A549 cells, XTT colorimetry; conditions: cultured 72 hours
# Method: as §1, §2, §3, §4
# A549 cells (human lung cancer cells): 2×10^4 cells/ml
Compound,GI50 [1] [nM],GI50 [2] [nM],GI50 [3] [nM],GI50 [4] [nM],GI50 [5] [nM]
"COc1ccc(CSc2nc(-c3c(C)noc3C)c3ncn(C)c3n2)cc1 [Compound 169, 6-(3,5-dimethylisoxazol-4-yl)-2-(4-methoxybenzylsulfanyl)-9-methyl-9H-purine]",80,110,70,< 40,< 40
"CCCn1c(CC)nc2c(N3CCOCC3)nc(SCc3ccc(OC)cc3)nc21 [Compound 6, 8-ethyl-2-(4-methoxybenzylsulfanyl)-6-morpholino-9-propyl-9H-purine]",940,1160,600,720,870
"COc1ccc(CSc2nc(-c3cn[nH]c3)c3ncn(C)c3n2)cc1 [Compound 170, 2-(4-methoxybenzylsulfanyl)-9-methyl-6-(pyrazol-4-yl)-9H-purine]",< 40,70,50,< 40,< 40
"C=Cc1nc(SCc2ccc(OC)cc2)nc2c1ncn2C [Compound 165, 2-(4-methoxybenzylsulfanyl)-9-methyl-6-vinyl-9H-purine]",4100,980,3200,260,3300
"CCc1nc2c(N3CCOCC3)nc(SCc3ccc(OC)cc3OCc3ccccc3)nc2n1C [Compound 15, 2-(2-benzyloxy-4-methoxybenzylsulfanyl)-8-ethyl-9-methyl-6-morpholino-9H-purine]",1160,1800,820,870,2280
"COc1ccc(CSc2nc(N3CC=CC3)c3ncn(C)c3n2)cc1 [Compound 130, 2-(4-methoxybenzylsulfanyl)-9-methyl-6-(3-pyrrolin-1-yl)-9H-purine]",280,630,540,250,400
"COc1ccc(CSc2nc(N(C)OC)c3ncn(C)c3n2)cc1 [Compound 105, 6-(N-methoxy-N-methylamino)-2-(4-methoxybenzylsulfanyl)-9-methyl-9H-purine]",260,410,560,240,240
"CCc1nc2c(N3CCOCC3)nc(SCc3ccc(I)cc3)nc2n1C [Compound 49, 8-ethyl-2-(4-iodobenzylsulfanyl)-9-methyl-6-morpholino-9H-purine]",390,1340,460,290,320
"COc1ccc(CSc2nc(N3CCOCC3)c3ncn(C)c3n2)cc1N [Compound 18, 2-(3-amino-4-methoxybenzylsulfanyl)-9-methyl-6-morpholino-9H-purine]",3140,1090,690,350,950
"CCn1cnc2c(N3C=COCC3)nc(SCc3ccc(OC)c(N)c3)nc21 [Compound 151, 2-(3-amino-4-methoxybenzylsulfanyl)-6-(2,3-dihydro-[1,4]oxadin-4-yl)-9-ethyl-9H-purine]",3400,1470,1440,570,700
"CCc1nc2c(N3CCOCC3)nc(SCc3ccc(OC)c(NC(=O)COC)c3)nc2n1C [Compound 63, 8-ethyl-2-(3-methoxyacetylamino-4-methoxybenzylsulfanyl)-9-methyl-6-morpholino-9H-purine]",3300,1900,870,1500,1600
"CCc1nc2c(N3CCOCC3)nc(SCc3ccc(OC)c(F)c3)nc2n1CC [Compound 123, 8,9-diethyl-2-(3-fluoro-4-methoxybenzylsulfanyl)-6-morpholino-9H-purine]",200,370,240,130,420
"C=Cc1ccc(CSc2nc(N3CCOCC3)c3nc(CC)n(C)c3n2)cc1 [Compound 10, 8-ethyl-9-methyl-6-morpholino-2-(4-vinylbenzylsulfanyl)-9H-purine]",1250,1820,890,1280,1690
"CCc1nc2c(N3CCOCC3)nc(SCc3ccc(OC)c(Br)c3)nc2n1C [Compound 78, 2-(3-bromo-4-methoxybenzylsulfanyl)-8-ethyl-9-methyl-6-morpholino-9H-purine]",1100,1200,360,910,1100
"COc1ccc(CSc2nc(N(C)C)c3ncn(C)c3n2)cc1 [Compound 21, 6-dimethylamino-2-(4-methoxybenzylsulfanyl)-9-methyl-9H-purine]",140,340,140,100,220
"CCN(C)c1nc(SCc2ccc(OC)c(F)c2)nc2c1ncn2C [Compound 82, 6-(N-ethyl-N-methylamino)-2-(3-fluoro-4-methoxybenzylsulfanyl)-9-methyl-9H-purine]",210,300,300,110,140
"CCOc1ccc(CSc2nc(N3CCOCC3)c3ncn(C)c3n2)cc1 [Compound 99, 2-(4-ethoxybenzylsulfanyl)-9-methyl-6-morpholino-9H-purine]",1290,1980,5950,960,1180
"CCc1nc2c(N3CCOCC3)nc(SCc3ccc(OC)c(Cl)c3)nc2n1C [Compound 16, 2-(3-chloro-4-methoxybenzylsulfanyl)-8-ethyl-9-methyl-6-morpholino-9H-purine]",1220,1680,910,850,1750
"CCn1cnc2c(N3C=COCC3)nc(SCc3ccc(OC)c(F)c3)nc21 [Compound 154, 6-(2,3-dihydro-[1,4]oxadin-4-yl)-9-ethyl-2-(3-fluoro-4-methoxybenzylsulfanyl)-9H-purine]",170,370,220,90,100
"CCN(C)c1nc(SCc2ccc(OC)c(N)c2)nc2c1ncn2C [Compound 84, 2-(3-amino-4-methoxybenzylsulfanyl)-6-(N-ethyl-N-methylamino)-9-methyl-9H-purine]",1900,510,980,260,550
"COc1ccc(CSc2nc(-n3cccc3)c3ncn(C)c3n2)cc1 [Compound 109, 9-methyl-2-(4-methoxybenzylsulfanyl)-6-(1-pyrrolyl)-9H-purine]",360,510,580,320,570
"CCOc1ccc(CSc2nc(N3CCOCC3)c3nc(CC)n(CC)c3n2)cc1N [Compound 106, 2-(3-amino-4-ethoxybenzylsulfanyl)-8,9-diethyl-6-morpholino-9H-purine]",290,300,950,200,140
"CCc1nc2c(N3CCOCC3)nc(SCCCc3ccc(OC)cc3)nc2n1C [Compound 50, 8-ethyl-2-[3-(4-methoxyphenyl)propylsulfanyl]-9-methyl-6-morpholino-9H-purine]",1020,1430,620,380,890
"COc1ccc(CSc2nc(-n3ccnc3)c3ncn(C)c3n2)cc1 [Compound 110, 6-(imidazol-1-yl)-2-(4-methoxybenzylsulfanyl)-9-methyl-9H-purine]",790,1430,1400,470,950
"CCc1nc2c(N3CCOCC3)nc(SCc3ccc(OC)c(C#N)c3)nc2n1C [Compound 51, 2-(3-cyano-4-methoxybenzylsulfanyl)-8-ethyl-9-methyl-6-morpholino-9H-purine]",140,380,100,70,100
